9 compounds from ChEMBL document CHEMBL1201862, “PubChem BioAssay data set” (2004) can be followed below.

The structures appear in SMILES notation. Active and inactive are the calls of the source.

The subject of test [1] is HEK293. Kind of test: inhibition of NOD1-driven NF-kB reporter – cell-based, luminescence, uHTS, primary screen (AID 1578). It counts as functional. Conditions: Homo sapiens.
The subject of test [2] is HEK293. Description: cells. The class given is functional, cell-based. The settings on record: Homo sapiens.
For test [3], the system named is HEK293. Kind of test: cells. It counts as functional, cell-based. The settings on record: Homo sapiens. This is another data set of the same source.
Test [4] deals with HEK293. Description: NOD2 signaling inhibitors in MDP-stimulated cells, cell-based, uHTS, luminescence (AID 2001). It counts as functional. The settings on record: Homo sapiens.
Test [5] in a line: viability of PTEN-deleted HCT116 cells – cell-based, HCT116 PTEN knockout, dose response (AID 1047).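 Also: HCT116 colon tumor cells with PTEN knocked out; cells exposed to compound for 60 hours before readout; potency for loss of cell viability measured by luminescence.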 It counts as functional.
The nature of test [6]: viability of HCT116 lacking mutant beta-catenin – cell-based, human colon tumor, dose response (AID 1045).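 Also: HCT116 colon tumor cells with beta catenin knocked out; cells exposed to compound for 60 hours.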 It counts as functional.
Test [7] relates to INS1. Kind of test: INS-1E survival protection against cytokine death – cell-based, luminescence, retest, dose response (AID 449756).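 Also: cell death triggered by IL-1 beta plus TNF-alpha plus IFN-gamma mixture; protective hits raise ATP signal compared with cytokine alone wells.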 The class given is functional. The settings on record: Rattus norvegicus.
Test [8] relates to Vero. Kind of test: cells. It counts as functional. The settings on record: Chlorocebus sabaeus.
The target of test [9] is Voltage-dependent T-type calcium channel subunit alpha-1H (Homo sapiens, UniProt O95180). The class given is functional.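 Also: channel activity triggered by adding a high calcium stimulation buffer.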
Chain of Voltage-dependent T-type calcium channel subunit alpha-1H (O95180 whole entry): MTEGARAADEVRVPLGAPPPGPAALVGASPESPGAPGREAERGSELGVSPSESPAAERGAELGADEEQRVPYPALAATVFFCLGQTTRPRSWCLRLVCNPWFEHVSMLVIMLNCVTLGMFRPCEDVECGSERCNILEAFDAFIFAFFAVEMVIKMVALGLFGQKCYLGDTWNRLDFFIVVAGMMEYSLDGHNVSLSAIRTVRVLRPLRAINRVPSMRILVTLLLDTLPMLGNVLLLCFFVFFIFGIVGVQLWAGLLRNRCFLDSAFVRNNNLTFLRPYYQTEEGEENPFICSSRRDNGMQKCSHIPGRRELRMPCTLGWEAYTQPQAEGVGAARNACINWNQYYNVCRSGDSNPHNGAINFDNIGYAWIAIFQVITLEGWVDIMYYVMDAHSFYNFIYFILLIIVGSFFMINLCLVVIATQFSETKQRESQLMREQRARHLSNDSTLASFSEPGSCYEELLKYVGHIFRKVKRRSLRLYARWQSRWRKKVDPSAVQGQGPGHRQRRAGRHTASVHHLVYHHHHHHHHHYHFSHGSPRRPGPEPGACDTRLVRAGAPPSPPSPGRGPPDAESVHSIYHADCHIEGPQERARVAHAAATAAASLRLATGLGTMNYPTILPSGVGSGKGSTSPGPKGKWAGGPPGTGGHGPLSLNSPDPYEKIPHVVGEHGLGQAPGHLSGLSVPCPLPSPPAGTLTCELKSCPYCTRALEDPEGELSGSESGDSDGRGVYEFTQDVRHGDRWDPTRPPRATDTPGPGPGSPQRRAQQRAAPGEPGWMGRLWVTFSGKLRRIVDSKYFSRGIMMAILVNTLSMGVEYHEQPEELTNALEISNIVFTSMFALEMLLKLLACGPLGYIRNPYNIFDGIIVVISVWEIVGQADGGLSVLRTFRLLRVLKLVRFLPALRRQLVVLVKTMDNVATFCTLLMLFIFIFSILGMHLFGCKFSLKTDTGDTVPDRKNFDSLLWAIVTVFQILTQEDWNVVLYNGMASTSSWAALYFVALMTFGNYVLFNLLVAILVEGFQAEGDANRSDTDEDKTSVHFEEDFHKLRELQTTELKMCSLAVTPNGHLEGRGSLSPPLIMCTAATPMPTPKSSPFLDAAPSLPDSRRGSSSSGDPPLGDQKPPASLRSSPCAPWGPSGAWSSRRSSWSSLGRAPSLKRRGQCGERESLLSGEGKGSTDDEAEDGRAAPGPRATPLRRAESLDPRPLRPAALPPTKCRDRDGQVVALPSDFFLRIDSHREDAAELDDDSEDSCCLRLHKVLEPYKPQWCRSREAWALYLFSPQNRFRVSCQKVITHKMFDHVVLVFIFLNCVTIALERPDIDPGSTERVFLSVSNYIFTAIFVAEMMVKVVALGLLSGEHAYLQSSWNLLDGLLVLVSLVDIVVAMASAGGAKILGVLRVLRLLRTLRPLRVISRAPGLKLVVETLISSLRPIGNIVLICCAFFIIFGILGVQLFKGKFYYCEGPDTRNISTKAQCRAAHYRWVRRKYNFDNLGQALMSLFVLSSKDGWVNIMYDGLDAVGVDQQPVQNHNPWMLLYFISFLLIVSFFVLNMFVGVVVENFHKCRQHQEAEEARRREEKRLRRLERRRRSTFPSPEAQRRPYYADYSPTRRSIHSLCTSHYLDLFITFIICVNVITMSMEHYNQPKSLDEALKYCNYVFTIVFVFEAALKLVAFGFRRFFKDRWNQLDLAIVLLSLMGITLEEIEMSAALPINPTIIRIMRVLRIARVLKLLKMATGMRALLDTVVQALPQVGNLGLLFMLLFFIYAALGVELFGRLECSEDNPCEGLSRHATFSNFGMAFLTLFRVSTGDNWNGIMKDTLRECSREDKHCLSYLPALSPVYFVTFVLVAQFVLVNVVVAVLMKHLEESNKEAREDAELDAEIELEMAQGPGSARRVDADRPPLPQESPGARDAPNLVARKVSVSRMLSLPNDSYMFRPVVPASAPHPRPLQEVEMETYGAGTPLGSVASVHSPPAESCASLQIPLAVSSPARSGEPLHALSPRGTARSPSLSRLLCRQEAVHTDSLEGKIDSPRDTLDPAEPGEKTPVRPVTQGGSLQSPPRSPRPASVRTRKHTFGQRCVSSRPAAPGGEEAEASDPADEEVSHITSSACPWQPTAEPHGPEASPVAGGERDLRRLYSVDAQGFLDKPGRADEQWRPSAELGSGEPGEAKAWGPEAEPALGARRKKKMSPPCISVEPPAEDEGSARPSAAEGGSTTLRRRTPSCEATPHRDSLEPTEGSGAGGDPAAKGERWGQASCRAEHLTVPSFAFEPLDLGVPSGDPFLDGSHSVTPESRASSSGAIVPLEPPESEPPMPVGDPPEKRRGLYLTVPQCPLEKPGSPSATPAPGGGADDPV
For test [10], the target named is Intestinal-type alkaline phosphatase (Homo sapiens, UniProt P09923). Description: activation of human intestinal alkaline phosphatase – biochemical, dose response (AID 488873). It counts as functional.
Chain of Intestinal-type alkaline phosphatase (Homo sapiens, UniProt P09923) (P09923 whole entry): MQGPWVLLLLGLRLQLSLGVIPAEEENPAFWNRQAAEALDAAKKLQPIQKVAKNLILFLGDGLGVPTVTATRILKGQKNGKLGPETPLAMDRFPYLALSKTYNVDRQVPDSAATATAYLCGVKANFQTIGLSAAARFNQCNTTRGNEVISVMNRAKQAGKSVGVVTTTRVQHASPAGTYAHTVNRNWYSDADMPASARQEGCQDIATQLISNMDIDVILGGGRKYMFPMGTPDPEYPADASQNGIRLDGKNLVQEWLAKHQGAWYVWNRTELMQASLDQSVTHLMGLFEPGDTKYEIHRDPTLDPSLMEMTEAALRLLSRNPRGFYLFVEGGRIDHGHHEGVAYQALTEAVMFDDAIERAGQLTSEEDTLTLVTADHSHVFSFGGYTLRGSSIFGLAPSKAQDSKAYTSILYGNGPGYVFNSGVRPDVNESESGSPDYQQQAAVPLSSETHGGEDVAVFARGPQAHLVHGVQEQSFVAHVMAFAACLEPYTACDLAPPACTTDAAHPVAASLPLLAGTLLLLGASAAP
Test [11] has as its target Intestinal-type alkaline phosphatase (Mus musculus, UniProt P24822). Description: PubChem AID 488785. The class given is functional.
The target in test [12] is T1, Alkaline phosphatase, tissue-nonspecific isozyme (Homo sapiens, UniProt P05186).
T1 sequence (P05186 whole entry): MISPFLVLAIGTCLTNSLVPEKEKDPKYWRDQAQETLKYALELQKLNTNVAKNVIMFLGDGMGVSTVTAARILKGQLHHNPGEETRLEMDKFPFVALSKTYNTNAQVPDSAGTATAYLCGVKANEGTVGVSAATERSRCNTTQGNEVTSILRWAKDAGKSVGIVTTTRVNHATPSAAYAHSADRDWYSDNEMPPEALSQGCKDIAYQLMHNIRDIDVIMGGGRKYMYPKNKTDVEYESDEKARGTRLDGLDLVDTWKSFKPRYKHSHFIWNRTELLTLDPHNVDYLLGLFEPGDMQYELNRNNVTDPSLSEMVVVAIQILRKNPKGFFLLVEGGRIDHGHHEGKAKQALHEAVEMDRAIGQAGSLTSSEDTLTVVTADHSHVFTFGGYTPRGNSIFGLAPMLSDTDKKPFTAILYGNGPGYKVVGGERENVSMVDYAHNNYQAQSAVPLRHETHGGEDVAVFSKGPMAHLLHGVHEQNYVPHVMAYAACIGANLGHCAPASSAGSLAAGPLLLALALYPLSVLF
Kind of test: TNAP enzyme inhibition by screening hits, dose response, selectivity assay for mouse IAP inhibitor project, biochemical, human TNAP, uHTS hits (AID 488906). The class given is functional.

In test [13] the target is T2, Caspase-3 (Homo sapiens, UniProt P42574).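 Also: Dose-response selectivity test against caspase-3 for candidate inhibitors of sentrin-specific proteases (SENPs).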
T2 sequence (P42574 whole entry): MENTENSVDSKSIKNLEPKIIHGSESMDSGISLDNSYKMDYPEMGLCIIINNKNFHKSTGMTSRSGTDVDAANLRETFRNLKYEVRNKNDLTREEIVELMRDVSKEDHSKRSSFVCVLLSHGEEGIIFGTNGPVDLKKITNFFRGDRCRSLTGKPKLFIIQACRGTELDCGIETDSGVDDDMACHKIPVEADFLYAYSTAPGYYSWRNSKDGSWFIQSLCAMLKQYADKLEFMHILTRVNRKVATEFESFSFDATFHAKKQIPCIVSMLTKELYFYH
It counts as functional.

For test [14], the target named is T3, Sentrin-specific protease 7 (Homo sapiens, UniProt Q9BQF6).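 Also: Luminescence-based dose-response confirmation of ultra-high-throughput screening hits, measuring inhibition of SENP7.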
T3 sequence (Q9BQF6 whole entry): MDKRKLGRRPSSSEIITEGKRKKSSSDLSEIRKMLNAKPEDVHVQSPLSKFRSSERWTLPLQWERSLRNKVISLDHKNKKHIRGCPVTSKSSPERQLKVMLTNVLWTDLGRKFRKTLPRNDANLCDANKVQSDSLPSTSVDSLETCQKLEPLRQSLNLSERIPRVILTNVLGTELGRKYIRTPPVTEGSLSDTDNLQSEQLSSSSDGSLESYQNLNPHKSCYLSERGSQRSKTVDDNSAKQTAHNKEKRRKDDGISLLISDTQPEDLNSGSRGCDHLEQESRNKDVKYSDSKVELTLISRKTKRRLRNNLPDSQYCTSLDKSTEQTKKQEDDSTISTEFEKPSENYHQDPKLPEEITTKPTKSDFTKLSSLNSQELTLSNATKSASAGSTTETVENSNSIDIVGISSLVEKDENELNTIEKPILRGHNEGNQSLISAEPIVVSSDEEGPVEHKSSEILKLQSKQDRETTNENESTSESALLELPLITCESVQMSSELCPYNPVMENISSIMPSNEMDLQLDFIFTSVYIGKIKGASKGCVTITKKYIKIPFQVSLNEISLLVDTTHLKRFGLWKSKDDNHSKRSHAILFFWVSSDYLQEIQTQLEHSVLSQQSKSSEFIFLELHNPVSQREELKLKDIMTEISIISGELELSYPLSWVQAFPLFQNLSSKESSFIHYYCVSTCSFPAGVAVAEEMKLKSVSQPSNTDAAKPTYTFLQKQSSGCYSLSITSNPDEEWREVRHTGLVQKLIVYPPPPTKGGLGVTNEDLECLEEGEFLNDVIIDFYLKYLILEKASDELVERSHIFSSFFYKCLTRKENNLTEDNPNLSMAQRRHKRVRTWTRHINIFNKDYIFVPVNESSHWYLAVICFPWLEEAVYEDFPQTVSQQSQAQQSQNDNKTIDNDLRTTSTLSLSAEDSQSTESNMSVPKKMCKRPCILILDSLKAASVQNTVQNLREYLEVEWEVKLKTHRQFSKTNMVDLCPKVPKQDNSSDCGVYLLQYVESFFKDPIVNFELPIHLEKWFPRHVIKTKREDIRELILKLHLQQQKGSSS
The class given is functional.

In test [15] the target is T4, Sentrin-specific protease 6 (Homo sapiens, UniProt Q9GZR1).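 Also: Luminescence-based dose-response confirmatory assay of SENP6 inhibition, following up an ultra-high-throughput screen.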
T4 sequence (Q9GZR1 whole entry): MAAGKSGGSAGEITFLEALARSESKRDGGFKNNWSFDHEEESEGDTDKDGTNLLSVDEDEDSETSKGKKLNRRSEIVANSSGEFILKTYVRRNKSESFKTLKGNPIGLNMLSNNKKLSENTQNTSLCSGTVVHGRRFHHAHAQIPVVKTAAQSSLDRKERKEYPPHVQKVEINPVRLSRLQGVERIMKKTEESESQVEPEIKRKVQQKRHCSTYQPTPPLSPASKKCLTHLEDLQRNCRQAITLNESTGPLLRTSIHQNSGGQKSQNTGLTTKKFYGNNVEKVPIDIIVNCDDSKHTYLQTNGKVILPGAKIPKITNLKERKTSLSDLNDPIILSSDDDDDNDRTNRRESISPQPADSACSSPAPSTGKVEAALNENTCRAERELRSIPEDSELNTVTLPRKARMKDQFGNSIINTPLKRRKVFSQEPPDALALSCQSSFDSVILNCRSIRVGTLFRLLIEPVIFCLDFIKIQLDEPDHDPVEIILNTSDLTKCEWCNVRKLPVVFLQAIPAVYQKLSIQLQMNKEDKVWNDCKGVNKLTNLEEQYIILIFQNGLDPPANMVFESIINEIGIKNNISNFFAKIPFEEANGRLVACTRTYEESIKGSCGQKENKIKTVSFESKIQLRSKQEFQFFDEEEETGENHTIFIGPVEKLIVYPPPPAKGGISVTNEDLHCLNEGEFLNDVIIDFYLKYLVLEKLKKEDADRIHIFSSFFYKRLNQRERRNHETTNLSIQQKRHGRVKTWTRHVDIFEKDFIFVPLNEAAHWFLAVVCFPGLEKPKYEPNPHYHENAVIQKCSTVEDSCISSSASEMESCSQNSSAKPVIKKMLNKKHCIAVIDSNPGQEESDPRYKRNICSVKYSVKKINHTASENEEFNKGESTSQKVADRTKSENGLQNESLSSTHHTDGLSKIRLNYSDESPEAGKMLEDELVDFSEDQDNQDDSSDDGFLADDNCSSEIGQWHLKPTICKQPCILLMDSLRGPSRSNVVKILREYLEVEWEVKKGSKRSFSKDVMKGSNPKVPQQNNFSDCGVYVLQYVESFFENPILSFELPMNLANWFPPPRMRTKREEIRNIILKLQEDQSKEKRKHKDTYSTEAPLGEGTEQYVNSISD
The class given is functional.

In test [16] the target is T5, Sentrin-specific protease 8 (Homo sapiens, UniProt Q96LD8).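 Also: luminescence read-out of SENP8 inhibition, dose-response confirmation following an ultra-high-throughput screen.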
T5 sequence (Q96LD8 whole entry): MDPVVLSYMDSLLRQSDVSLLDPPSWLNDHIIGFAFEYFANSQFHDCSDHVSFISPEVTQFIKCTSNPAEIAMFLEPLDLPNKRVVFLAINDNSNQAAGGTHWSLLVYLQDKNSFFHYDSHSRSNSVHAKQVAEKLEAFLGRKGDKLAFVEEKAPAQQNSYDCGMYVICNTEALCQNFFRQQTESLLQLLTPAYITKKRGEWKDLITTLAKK
The class given is functional.

Chain of Intestinal-type alkaline phosphatase (Mus musculus, UniProt P24822) (P24822 whole entry): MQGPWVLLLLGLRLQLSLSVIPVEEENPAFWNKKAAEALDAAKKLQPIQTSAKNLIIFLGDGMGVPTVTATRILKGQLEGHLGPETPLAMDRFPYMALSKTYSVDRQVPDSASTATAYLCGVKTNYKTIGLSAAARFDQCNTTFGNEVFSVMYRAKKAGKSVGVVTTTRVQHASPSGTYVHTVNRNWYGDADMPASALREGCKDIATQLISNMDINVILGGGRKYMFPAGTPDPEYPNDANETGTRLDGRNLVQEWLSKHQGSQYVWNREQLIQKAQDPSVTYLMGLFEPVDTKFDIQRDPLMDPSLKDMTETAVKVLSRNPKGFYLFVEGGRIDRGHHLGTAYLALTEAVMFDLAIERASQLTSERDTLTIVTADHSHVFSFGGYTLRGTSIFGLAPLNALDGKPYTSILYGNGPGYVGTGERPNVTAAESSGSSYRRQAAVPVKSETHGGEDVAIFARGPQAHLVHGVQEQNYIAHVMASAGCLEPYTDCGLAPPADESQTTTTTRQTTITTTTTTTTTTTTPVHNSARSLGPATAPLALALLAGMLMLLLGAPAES

Consider `COC(=O)c1scc(S(=O)(=O)C(C)C)c1N/N=C(\C#N)C(=O)c1ccc(Cl)cc1`, for which, in [1], the EC50 – broadly, the concentration that produces a half-maximal response – was 2.17 µM (active). The IC50 in [2], in test [3] and in test [4] was > 20 µM (inactive) in each case.

With `COc1ccc(NCc2nnc(SCC(=O)Nc3nc(-c4ccccc4)cs3)n2-c2ccccc2)cc1`, the values for the EC50 in test [5] and in test [6] were 2.78 µM (active) and 2.54 µM (active), respectively. The AC50 (in general, the concentration at which the activity in the assay is half-maximal) in test [7] was 6.62 µM (active). In addition, in [8], the CC50 (in general, the concentration giving 50% cytotoxicity) is 8.35 µM (active).

In the case of `Cc1ccc(S(=O)(=O)Nc2ccc3nc(-c4cccn4C)[nH]c3c2)cc1`, the EC50 in test [9] is 5.6 µM (active).

Take `COc1ccccc1CNC(=O)CCNS(=O)(=O)c1ccc2[nH]c(=O)oc2c1`: in test [10], the EC50 was 45.1 µM (active). Moreover, the IC50 (commonly the point on the concentration scale where inhibition reaches its midpoint) in test [11] is 11.4 µM (active); in test [12] it was 27.5 µM (active).

With `CCn1c(CNc2ccc(Cl)cc2)nnc1SCC(=O)OC1CCCCC1`, the EC50 in [9] was 2.56 µM (active).

For the compound `CCCCCC(=O)N1C[C@H](O)[C@@H](n2cc(-c3ccc(F)cc3)nn2)C[C@@H]1c1ccc(Cl)cc1`, the CC50 in [8] was > 25 µM (active).

On to `Cc1cc(N2CCC(C(=O)Nc3ccc(F)cc3)CC2)nc(-c2ccccc2)n1`, for which the EC50 in [9] was 4.26 µM (active).

Regarding `COc1cccc(CNC(=O)CSCc2cnn(-c3ccccc3)c2-n2cccc2)c1`, in [9], the EC50 was 3.66 µM (active).

On to `O=C(Nc1ccc2ccccc2c1)c1cccc(F)c1`, for which the IC50 in [13] was 18.3 µM (active); in [14], 4.43 µM (active); in [15] it was 5.72 µM (active); in test [16], > 100 µM (inactive).
